Measured values reported in patent US7846950B2, “Histamine H3 receptor inhibitors, preparation and therapeutic uses” (Eli Lilly and Company, priority 2004, dated 2010).

Molecular target: T1, human histamine 3 receptor (Homo sapiens, UniProt Q9Y5N1)
T1 construct: expressed in transfected cells; membranes
Assay: H3R binding assay (competitive inhibition SPA, [3H] alpha-methylhistamine, HEK293 H3R8 membranes)
Details: read-out: Human H3 Receptor Ki
From the text: The compounds of the present invention can readily be evaluated by using a competitive inhibition Scintillation Proximity Assay (SPA) based on a H3R binding assay using [3H] α methylhistamine as ligand. Stable cell lines, including but not limited to HEK can be transfected with cDNA coding for H3R to prepare membranes used for the binding assay. The technique is illustrated below (Preparation of Histamine Receptor Subtype Membranes) for the histamine receptor subtypes.
cDNA for the human histamine 1 receptor (H1R) was cloned into a mammalian expression vector containing the CMV promoter (pcDNA3.1(+), Invitogen) and transfected into HEK293 cells using the FuGENE Tranfection Reagent (Roche Diagnostics Corporation). Transfected cells were selected using G418 (500 μ/mL). Colonies that survived selection were grown and tested for histamine binding to cells grown in 96-well dishes using a scintillation proximity assay (SPA) based radioligand binding assay. Briefly, cells, representing individual selected clones, were grown as confluent monolayers in 96-well dishes (Costar Clear Bottom Plates, #3632) by seeding wells with 25,000 cells and growing for 48 hours (37° C., 5% CO2). […] Plates were counted in a Wallac Trilux 1450 Microbeta scintillation counter. […]
cDNA for the human histamine 3 receptor was cloned and expressed as described in (A. Preparation H1R membranes), above. […]

T1 sequence (Q9Y5N1 whole entry): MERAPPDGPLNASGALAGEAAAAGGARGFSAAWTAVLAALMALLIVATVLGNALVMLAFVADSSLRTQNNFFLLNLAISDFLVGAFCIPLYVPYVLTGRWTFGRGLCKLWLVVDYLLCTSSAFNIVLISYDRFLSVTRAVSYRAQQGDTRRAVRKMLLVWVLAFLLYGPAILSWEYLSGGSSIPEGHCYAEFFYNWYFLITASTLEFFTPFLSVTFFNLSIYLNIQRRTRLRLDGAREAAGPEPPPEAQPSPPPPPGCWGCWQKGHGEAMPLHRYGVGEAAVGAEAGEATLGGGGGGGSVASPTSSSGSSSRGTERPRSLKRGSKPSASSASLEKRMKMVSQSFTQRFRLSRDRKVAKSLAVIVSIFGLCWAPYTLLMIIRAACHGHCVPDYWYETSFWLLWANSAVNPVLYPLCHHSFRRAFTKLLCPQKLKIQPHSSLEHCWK

SMILES	Ki
C[C@@H]1CCCN1C[C@@H]1CCCN1C(=O)c1ccc(OCc2ncon2)cc1F	1.8 nM
O=C(c1ccc(OCc2ccco2)cc1)N1CCC[C@H]1CN1CCCC1	6.2 nM
